In paper PMC5506877 (Heliyon, 2017):
Several values for one entry are separate records, joined by “and”; a condition that tells them apart may be missing. Equal values may be shown once. Each block holds one compound with its values, some of them ahead of it.

Tests used:
[1] = at pH 3.575; cited from earlier work
[2] = plasma protein binding by equilibrium dialysis; type: in vitro ADME, human; conditions: for recovery at 24 h: pooled human plasma dialysed against PBS, human plasma / PBS after dialysis, read-out: recovery in the plasma protein binding (equilibrium dialysis) experiment
Description: Plasma was obtained by centrifugation (4 °C, 1600 g, 10 min, CF7D2, Hitachi Koki) of EDTA‐treated blood from three healthy male volunteers and was then pooled. […] Samples for M4 were mixed with deuterated M4 as an internal standard and acetonitrile/methanol (1:1, v/v). After centrifugation, the supernatant was injected into an LC/ESI-MS/MS system consisting of ACQUITY Ultra Performance LC (Waters) and API 4000 (AB Sciex) in positive-ion multiple-reaction monitoring (MRM) mode to measure M4 (Q1: m/z 457 and Q3: m/z 396) concentration. Chromatography was performed using ACQUITY UPLC BEH Phenyl (2.1 mm I.D. × 50 mm, 1.7 μm, Waters) at 60 °C; MP A: water/98% formic acid (1000/1, v/v), MP B: methanol/98% formic acid (1000/1, v/v), with a flow rate of 0.7 mL/min and a gradient program as follows: (time, % MP B): 0 min, 40%; 0.3 min, 40%; 1.9 min, 45%; 1.91 min, 90%; 2.20 min, 90%; 2.21 min, 40%; 2.70 min, stop. For the protein binding of M4, 1–5000 ng/mL in human plasma, and 0.5–2500 ng/mL in PBS were calibrated.
The recovery was calculated by the following equation.
Protein binding was calculated by the following equation.
Protein binding = (1−Cf/Cp) × 100 (%)
Where Cf and Cp represent the concentration in PBS and in plasma, respectively.

[3] = cited from earlier work
[4] = human ADME study: metabolite profiling in plasma, urine and faeces after single oral [14C]alectinib; type: in vivo
Description: Human plasma for protein binding was obtained from three healthy male volunteers. All participants provided written informed consent prior to study related procedures. The protocol of human ADME study was approved by the Independent Ethics Committee of the Stichting Beoordeling Ethiek Bio-Medisch Onderzoek (Assen, The Netherlands), and that of protein binding study was approved by Chugai IRB.
Plasma samples were pooled at 4 h and 6 h (4 h + 6 h), and 8 h and 12 h (8 h +12 h) across the six subjects. An 18-mL aliquot of pooled plasma was extracted with the same volume of acetonitrile twice, and then the extract was lyophilized. The resulting residue was further extracted with 3 mL of acetonitrile/water (9:1, v/v) twice and lyophilized again. The resulting residue was reconstituted with 900 μL of methanol/water (7:3, v/v) to obtain the supernatant as an HPLC sample in which plasma was 20-fold concentrated.
Urine samples were pooled at 0–24 h, and at 24–72 h across the six subjects. A 16-mL aliquot of pooled urine was concentrated 20-fold using the same process for plasma.
Faecal samples were pooled at 0–48 h, 48–96 h, and 96–168 h across the six subjects. One to two weight equivalents of water was added to the faecal samples and the samples were homogenized and mixed with the same volume of acetonitrile. After following the same procedure as for plasma, the residue was reconstituted with methanol/water (7:3, v/v) or dimethyl sulfoxide (DMSO) and centrifuged, and the faecal sample was concentrated 5-fold for use in analysis.
Alkaline Conditions: For metabolite profiling, the extracted samples from plasma, urine, and faeces were subjected to HPLC under alkaline conditions using XBridge™ Shield RP18, 3.5 μm, 4.6 × 150 mm (Waters), and a linear stepwise gradient with solvent A (consisting of water/30%trimethylamine at 100:0.1, v/v) and solvent B (consisting of acetonitrile/30%trimethylamine at 100:0.1, v/v), and a flow rate of 1 mL/min. Solvent B in the gradient started at 1% and then changed as follows: 30% (2 min), 60% (29 min), 98% (29.1 min), 98% (32 min), 1% (32.1 min), and 1% (40 min). The UV wavelength was set at 335 nm. […]
Plasma and Urine: To profile metabolites, 150 μL of the same HPLC sample of plasma or 100 μL of the same HPLC sample of urine was injected 3 separate time, and the eluates collected at 15-second intervals were combined to be measured by a liquid scintillation counter (LSC) (Tri-Carb 3100TR, PerkinElmer, Inc.) at a low level count mode for 10 min.
Faeces: A radiodetector (Radiomatic 625TR, PerkinElmer, Inc.) was used, and the area percentage of each radioactive peak on the radiochromatograms was calculated with analysis software (FLO-ONE Ver. 3.65, PerkinElmer, Inc.). […]

ALK = ALK (Homo sapiens, UniProt Q9UM73); experiment: inhibitory activity against ALK, cell-free TR-FRET kinase assay; type: biochemical; conditions: 90 min at 30 °C, geometric mean of triplicates
Sequence of ALK (Q9UM73 19-1620): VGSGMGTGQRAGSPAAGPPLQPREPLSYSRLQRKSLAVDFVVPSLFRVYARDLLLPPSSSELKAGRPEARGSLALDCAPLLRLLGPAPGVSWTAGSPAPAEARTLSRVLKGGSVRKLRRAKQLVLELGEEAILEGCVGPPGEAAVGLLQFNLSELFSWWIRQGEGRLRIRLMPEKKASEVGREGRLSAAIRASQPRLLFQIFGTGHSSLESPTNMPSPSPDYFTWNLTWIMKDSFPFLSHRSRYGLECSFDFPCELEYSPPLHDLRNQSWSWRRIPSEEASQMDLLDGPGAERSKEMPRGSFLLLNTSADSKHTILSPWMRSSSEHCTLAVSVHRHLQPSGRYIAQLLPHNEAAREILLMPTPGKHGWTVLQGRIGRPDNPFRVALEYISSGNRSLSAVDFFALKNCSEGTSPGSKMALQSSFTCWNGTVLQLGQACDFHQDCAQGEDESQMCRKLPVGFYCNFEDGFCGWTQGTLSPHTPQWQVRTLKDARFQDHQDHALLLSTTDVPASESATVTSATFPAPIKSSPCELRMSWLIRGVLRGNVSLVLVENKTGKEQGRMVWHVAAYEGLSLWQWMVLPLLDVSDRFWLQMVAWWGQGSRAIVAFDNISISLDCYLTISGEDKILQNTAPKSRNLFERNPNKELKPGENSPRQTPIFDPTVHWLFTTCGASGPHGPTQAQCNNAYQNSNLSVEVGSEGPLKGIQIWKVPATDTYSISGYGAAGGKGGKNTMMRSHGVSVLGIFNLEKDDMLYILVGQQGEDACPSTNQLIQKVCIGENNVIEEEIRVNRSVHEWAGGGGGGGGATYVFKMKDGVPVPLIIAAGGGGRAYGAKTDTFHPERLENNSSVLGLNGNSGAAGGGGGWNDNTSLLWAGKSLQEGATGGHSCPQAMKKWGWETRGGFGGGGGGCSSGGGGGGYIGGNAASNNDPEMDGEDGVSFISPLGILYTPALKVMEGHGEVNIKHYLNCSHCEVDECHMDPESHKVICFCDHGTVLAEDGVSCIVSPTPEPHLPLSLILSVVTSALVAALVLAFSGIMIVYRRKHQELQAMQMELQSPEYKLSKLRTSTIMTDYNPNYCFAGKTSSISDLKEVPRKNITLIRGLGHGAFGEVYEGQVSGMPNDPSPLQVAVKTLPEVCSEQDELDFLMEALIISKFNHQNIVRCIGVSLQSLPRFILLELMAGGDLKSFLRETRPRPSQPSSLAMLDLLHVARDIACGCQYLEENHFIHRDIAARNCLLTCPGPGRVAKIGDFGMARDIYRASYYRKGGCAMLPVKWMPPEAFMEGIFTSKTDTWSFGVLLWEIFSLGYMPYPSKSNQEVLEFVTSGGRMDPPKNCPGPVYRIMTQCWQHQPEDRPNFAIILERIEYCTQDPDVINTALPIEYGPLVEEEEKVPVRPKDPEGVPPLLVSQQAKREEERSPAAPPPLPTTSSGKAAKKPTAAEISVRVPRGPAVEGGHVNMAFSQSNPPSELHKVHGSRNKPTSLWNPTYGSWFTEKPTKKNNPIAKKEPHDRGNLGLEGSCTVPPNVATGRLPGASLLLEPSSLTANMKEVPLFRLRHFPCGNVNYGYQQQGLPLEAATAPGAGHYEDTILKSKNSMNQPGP
Description: Solutions of test articles, substrate/ATP (2 μmol/L substrate peptide-0.2 mol/L HEPES buffer containing 60 μmol/L ATP, 20 mmol/L MgCl2, 0.2 mmol/L DTT, and 40 μmol/L Na3VO4) and the enzyme (final concentration of 200 ng/mL) were mixed in a clear-bottomed 384-well black plate and incubated for 90 min at 30 °C. After adding stop solution (100 mmol/L EDTA-0.1 mol/L HEPES buffer), TR-FRET reagent (2.5 nmol/L of LANCE® Eu-W1024-labeled anti-phosphotyrosine (PT66) and 6.25 μg/mL of Streptavidine SureLight® APC) was added and the time-resolved fluorescence was measured by EnVision HTS (Model 2104, PerkinElmer).

[5] = test system: NCI-H2228 NSCLC cell line that harbours EML4-ALK fusion; experiment: cell growth inhibition, CellTiter-Glo, NCI-H2228 spheroid culture; type: cell-based; conditions: for IC50: Homo sapiens
Description: Then test article solutions were added and the cell viability was measured after a 120-h incubation in a CO2 incubator. The luminescence was measured by EnVision HTS and the cell viability was calculated.

[6] = male, human, plasma, human plasma, 37 °C 24 h dialysis, mean ± SD of triplicates
[7] = NCI-H2228 cells, 120-h incubation, geometric mean of triplicates
[8] = human, single oral 600 mg/67 μCi [14C]alectinib, pooled across n = 6, ND: Not detected

Structure (SMILES): CCc1cc2c(cc1N1CCC(N(CCO)CC(=O)O)CC1)C(C)(C)c1[nH]c3cc(C#N)ccc3c1C2=O [M1b]
- IC50 (ALK): 1.6 nM
- IC50 [5, 7]: 320 nM
- IC50 Cell growth [5, 7]: much weaker effect
- fold shift in IC50 from the ALK enzyme inhibition assay to the cell growth inhibition assay ([5]; cell medium contained 10% FBS): ~200 fold

Structure (SMILES): CCc1cc2c(cc1N1CCC(NCCO)CC1)C(C)(C)c1[nH]c3cc(C#N)ccc3c1C2=O [M4, 9-ethyl-8-[4-(2-hydroxyethylamino)-1-piperidyl]-6,6-dimethyl-11-oxo-5H-benzo[b]carbazole-3-carbonitrile]
- IC50 (ALK): 1.2 nM
- IC50 [5, 7]: 37 nM
- fraction unbound at 24 h, 0.3 μg/mL ([2]; male, human, plasma, human plasma, 0.3 μg/mL, 37 °C 24 h dialysis, mean ± SD of triplicates): 0.009
- fraction unbound at 24 h, 1 μg/mL [2, 6]: 0.005
- fraction unbound at 24 h, 2 μg/mL ([2]; male, human, plasma, human plasma, 2 μg/mL, 37 °C 24 h dialysis, mean ± SD of triplicates): 0.005
- fraction unbound at 24 h ([2]; male, human, plasma, human plasma, all concentrations investigated, read-out: human plasma protein binding over the range of concentration investigated): < 0.01
- recovery at 24 h ([2]; male): 82.7 ± 2.5%
- AUC ratio for the percentage of total drug-related systemic exposure ([3]; human plasma, LC/MS drug concentration vs total radioactivity): 15%
- amount of metabolite in faecal samples, % of the dose administered ([3]; human, faeces, single oral [14C]alectinib): 5.8%
- Percentage of drug related compound in analytical sample, Faeces 0–48 h [3, 8]: 1.1%
- Percentage of drug related compound in analytical sample, Faeces 48–96 h [3, 8]: 11.0%
- Percentage of drug related compound in analytical sample, Faeces 96–168 h [3, 8]: 37.3%
- Percentage of drug related compound in analytical sample, Plasma 4 h + 6 h [3, 8]: 7.0%
- Percentage of drug related compound in analytical sample, Plasma 8 h + 12 h [3, 8]: 9.9%
- Percentage of drug related compound in analytical sample, Urine 0–24 h [3, 8]: 9.0%
- Percentage of drug related compound in analytical sample, Urine 24–72 h [3, 8]: 24.2%

Structure (SMILES): CCc1cc2c(cc1N1CCC(N)CC1)C(C)(C)c1[nH]c3cc(C#N)ccc3c1C2=O [M6, 8-(4-amino-1-piperidyl)-9-ethyl-6,6-dimethyl-11-oxo-5H-benzo[b]carbazole-3-carbonitrile]
- Percentage of drug related compound in analytical sample, Faeces 96–168 h [3, 8]: 5.6%

The next lines start with results.

- human plasma protein binding over the range of concentration investigated ([2]; human plasma, all concentrations investigated): higher than 99%
- fraction unbound at 24 h, 0.1 μg/mL ([2]; male, human, plasma, human plasma, 0.1 μg/mL, 37 °C 24 h dialysis, mean ± SD of triplicates): 0.004
- fraction unbound at 24 h, 1 μg/mL [2, 6]: 0.003
- fraction unbound at 24 h, 10 μg/mL ([2]; male, human, plasma, human plasma, 10 μg/mL, 37 °C 24 h dialysis, mean ± SD of triplicates): 0.003
- recovery at 24 h ([2]; male): 85 ± 1.7%
Structure (SMILES): CCc1cc2c(cc1N1CCC(N3CCOCC3)CC1)C(C)(C)c1[nH]c3cc(C#N)ccc3c1C2=O [Alectinib, 9-ethyl-6,6-dimethyl-8-(4-morpholino-1-piperidyl)-11-oxo-5H-benzo[b]carbazole-3-carbonitrile, reference compound]
- logD [1]: 1.96
- Cmax in plasma ([3]; human ADME study, 600 mg oral [14C]alectinib): 175 ng/mL
- recovery of radioactivity within excretion in faeces ([3]; human, up to 168 h post-dose, % of dose administered): 97.8%
- recovery of radioactivity within excretion in urine ([3]; human, up to 168 h post-dose): 0.5%

- ratio of M1a peak to M1b peak, radiochromatogram ([4]; human faeces 48–96 h, fractionated M1, acidic HPLC conditions, radioactivity): 1 to 9 and 1/9
- ratio of M1a to M1b, extracted ion chromatogram (XIC) ([4]; human faeces 48–96 h, fractionated M1, acidic conditions, [M + H]+): 1 to 3 and 1/3
- ratio of M1a to M1b in the XIC, plasma ([4]; human plasma, LC-MS acidic conditions): 1/8
- ratio of M1a to M1b in the XIC, urine ([4]; human urine, LC-MS acidic conditions): 1/10
Structure (SMILES): CCc1cc2c(cc1N1CCC(NCCOCC(=O)O)CC1)C(C)(C)c1[nH]c3cc(C#N)ccc3c1C2=O [M1a]
